Results from US8378117B2 (priority 2005, dated 2013).
pEC50, pIC50: −log10 of the molar value. Where two headings read alike, the source gives them in different places.

Legend:
CB1 receptor [1] = molecular target: T1, CB1 receptor (Homo sapiens, UniProt P21554); test: cell-based; conditions: SK-N-MC cells
T1 construct: expressed in transfected cells
How it was run: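 Read-out is forskolin-driven CRE-β-gal reporter activity in stably transfected human-CB1 SK-N-MC cells, normalised to vehicle (100%); agonism lowers, inverse agonism raises signal. Values are EC50 (linear regression, multiple concentrations) or % change at one concentration.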

CB2 receptor = molecular target: T2, CB2 receptor (Homo sapiens, UniProt P34972); test: Binding assay for CB2 agonists or inverse agonists (SK-N-MC membranes, [3H]-CP-55,940); conditions: for inhibition at 0.2 µM: read-out: CB2 receptor binding percent inhibition, test concentration 0.2 μM (footnote 2); for CB2 receptor binding percent inhibition: test concentration not stated
T2 construct: expressed in transfected cells
How it was run: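 IC50 came from percent-inhibition data over several compound concentrations, fitted by linear regression. Binding used semi-purified membranes of human CB2-transfected SK-N-MC cells, 90 min at 30 °C, pH 7.5 Tris-HCl with MgCl2, EDTA and BSA, then filtration and scintillation counting.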

CB1 receptor [2] = molecular target: T1, CB1 receptor; test: Binding assay for CB1 agonists or inverse agonists (SK-N-MC membranes, [3H]-CP-55,940); conditions: for inhibition at 0.2 µM: read-out: CB1 receptor binding percent inhibition, test concentration 0.2 μM (footnote 2)
How it was run: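 Radioligand displacement: [3H]-CP-55,940 at […], 90 min at 30° C, pH 7.5 Tris buffer with 0.5 mg/mL fatty-acid-free BSA, using semi-purified membranes of human-CB1-transfected SK-N-MC cells. Bound counts collected on GF/C filters, 10 uM WIN 55,212 for non-specific; IC50 from percent inhibition over several concentrations.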

[3] = CB1 Receptor Functional Inverse Agonist EC50, forskolin induced β-galactosidase activity
[4] = Cannabinoid CB1 Receptor Binding IC50, calculated by linear regression from percent inhibition at various test concentrations
[5] = read-out: CB1 receptor binding percent inhibition
[6] = read-out: CB1 receptor binding percent inhibition, test concentration 1 μM (footnote 1)
[7] = forskolin induced β-galactosidase activity, read-out: CB1 Receptor Functional Inverse Agonist EC50

T1 sequence (P21554 whole entry): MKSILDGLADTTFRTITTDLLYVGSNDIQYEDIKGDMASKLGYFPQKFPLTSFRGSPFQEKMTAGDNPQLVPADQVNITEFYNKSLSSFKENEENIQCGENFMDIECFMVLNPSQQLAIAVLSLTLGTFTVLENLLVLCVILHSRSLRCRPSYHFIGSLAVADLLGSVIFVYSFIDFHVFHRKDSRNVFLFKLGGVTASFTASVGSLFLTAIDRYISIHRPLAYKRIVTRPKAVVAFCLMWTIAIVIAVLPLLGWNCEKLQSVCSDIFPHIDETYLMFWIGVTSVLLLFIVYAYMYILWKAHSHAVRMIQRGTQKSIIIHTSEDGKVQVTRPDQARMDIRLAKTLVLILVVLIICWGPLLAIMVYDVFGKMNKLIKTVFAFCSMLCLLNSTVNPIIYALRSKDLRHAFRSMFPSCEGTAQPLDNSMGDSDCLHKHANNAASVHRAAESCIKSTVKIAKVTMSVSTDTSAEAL
T2 sequence (P34972 whole entry): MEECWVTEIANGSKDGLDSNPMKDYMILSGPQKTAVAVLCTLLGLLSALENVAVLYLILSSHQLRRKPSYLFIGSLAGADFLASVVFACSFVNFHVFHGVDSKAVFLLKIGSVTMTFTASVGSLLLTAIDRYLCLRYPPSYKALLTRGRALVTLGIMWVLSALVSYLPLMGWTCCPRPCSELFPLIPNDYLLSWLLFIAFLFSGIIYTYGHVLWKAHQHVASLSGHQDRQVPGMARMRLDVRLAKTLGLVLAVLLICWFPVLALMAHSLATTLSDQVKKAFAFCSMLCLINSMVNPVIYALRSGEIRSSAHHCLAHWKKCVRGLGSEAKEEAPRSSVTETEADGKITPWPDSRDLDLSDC

Compound | pEC50 (CB1 receptor [1]; [3]) | inhibition at 0.2 µM (CB2 receptor) | inhibition at 0.2 µM (CB1 receptor [2]) | pIC50 (CB1 receptor [2]; [4]) | CB2 receptor binding percent inhibition (CB2 receptor) | inhibition at 1 µM (CB1 receptor [2]; [6]) | further results
O=C(NCc1ccncc1)c1nn(-c2ccc(Cl)cc2Cl)c2c1CCCC/C2=C\c1ccc(Cl)cc1 [Cpd 156, (8E)-8-(4-chloro-benzylidene)-1-(2,4-dichloro-phenyl)-1,4,5,6,7,8-hexahydro-cycloheptapyrazole-3-carboxylic acid (pyridin-4-ylmethyl)-amide] | 7.05 | 36% | 50% | – | – | – | –
O=C(c1nn(-c2ccc(Cl)cc2Cl)c2c1CCCC/C2=C\c1ccc(F)cc1)N1CCCC1c1ccccn1 (stereo not drawn) [Cpd 188, (8E)-[1-(2,4-dichloro-phenyl)-8-(4-fluoro-benzylidene)-1,4,5,6,7,8-hexahydro-cycloheptapyrazol-3-yl]-(2-pyridin-2-yl-pyrrolidin-1-yl)-methanone] | 8.00 | 36% | 64% | 7.00 | – | – | –
O=C(N[C@@H](CO)c1ccccc1)c1nn(C2CCCCC2)c2c1CCCCC2Cc1cccc(F)c1 (stereo partly drawn) [Cpd 55, 1-cyclohexyl-8-(3-fluoro-benzyl)-1,4,5,6,7,8-hexahydro-cycloheptapyrazole-3-carboxylic acid [(1R)-2-hydroxy-1-phenyl-ethyl]-amide] | 6.40 | – | – | – | 18% | – | inhibition at 1 µM (CB1 receptor [2]; [5]): 50%
O=C(c1nn(-c2ccc(F)cc2F)c2c1CCCCC2Cc1cccc(F)c1)N1CCOCC1 (stereo not drawn) [Cpd 118, [1-(2,4-difluoro-phenyl)-8-(3-fluoro-benzyl)-1,4,5,6,7,8-hexahydro-cycloheptapyrazol-3-yl]-morpholin-4-yl-methanone] | 7.00 | – | – | – | 31% | – | inhibition at 1 µM (CB1 receptor [2]; [5]): 4%
COC(=O)[C@@H](Cc1ccc(O)cc1)NC(=O)c1nn(-c2ccc(Cl)cc2Cl)c2c1CCCCC2Cc1cccc(Cl)c1 (stereo partly drawn) [Cpd 102, (2R)-2-{[8-(3-chloro-benzyl)-1-(2,4-dichloro-phenyl)-1,4,5,6,7,8-hexahydro-cycloheptapyrazole-3-carbonyl]-amino}-3-(4-hydroxy-phenyl)-propionic acid methyl ester] | 7.15 | – | – | 6.22 | 59% | 77% | inhibition at 0.5 µM (CB1 receptor [2]; read-out: CB1 receptor binding percent inhibition, test concentration 0.5 μM (footnote 10)): 55%
CCOC(=O)[C@H]1C2C=CC(C2)[C@H]1NC(=O)c1nn(-c2ccc(Cl)cc2Cl)c2c1CCCCC2Cc1cccc(F)c1 (stereo partly drawn) [Cpd 79, (2S,3R)-3-{[1-(2,4-dichloro-phenyl)-8-(3-fluoro-benzyl)-1,4,5,6,7,8-hexahydro-cycloheptapyrazole-3-carbonyl]-amino}-bicyclo[2.2.1]hept-5-ene-2-carboxylic acid ethyl ester] | 6.30 | – | – | – | 29% | – | CB1 receptor binding average percent inhibition (CB1 receptor [2]; value shown is an average percent inhibition (footnote 5), concentration not given): ^(5)37%
C[C@H](NC(=O)c1nn(-c2cc(Cl)ccc2Cl)c2c1CCCC/C2=C\c1ccc(Cl)cc1)C1CCCCC1 [Cpd 197, (8E)-8-(4-chloro-benzylidene)-1-(2,5-dichloro-phenyl)-1,4,5,6,7,8-hexahydro-cycloheptapyrazole-3-carboxylic acid [(1S)-1-cyclohexyl-ethyl]-amide] | 8.52 | 67% | 83% | 7.52 | – | – | –
C[C@H](NS(=O)(=O)/C=C/c1nn(-c2ccc(F)cc2F)c2c1CCCCC2Cc1cccc(F)c1)c1ccccc1 (stereo partly drawn) [Cpd 93, (2E)-2-[1-(2,4-difluoro-phenyl)-8-(3-fluoro-benzyl)-1,4,5,6,7,8-hexahydro-cycloheptapyrazol-3-yl]-ethenesulfonic acid [(1S)-1-phenyl-ethyl]-amide] | 7.30 | – | – | 6.40 | 58% | 70% | –
C[C@@H](NC(=O)c1nn(-c2ccc(Cl)cc2Cl)c2c1CCCC/C2=C\c1ccc(Cl)cc1)c1ccccc1 [Cpd 131, (8E)-8-(4-chloro-benzylidene)-1-(2,4-dichloro-phenyl)-1,4,5,6,7,8-hexahydro-cycloheptapyrazole-3-carboxylic acid [(1R)-1-phenyl-ethyl]-amide] | > 7.52 | – | – | 8.22 | – | – | inhibition at 0.25 µM (CB2 receptor; read-out: CB2 receptor binding percent inhibition, test concentration 0.25 μM (footnote 8)): 34%; inhibition at 0.015 µM (CB1 receptor [2]; read-out: CB1 receptor binding percent inhibition, test concentration 0.015 μM (footnote 7)): 53%; inhibition at 0.25 µM (CB1 receptor [2]; read-out: CB1 receptor binding percent inhibition, test concentration 0.25 μM (footnote 8)): 93%
C[C@H](NS(=O)(=O)/C=C/c1nn(-c2ccc(F)cc2F)c2c1CCCCC2Cc1cccc(F)c1)C1CCCCC1 (stereo partly drawn) [Cpd 94, (2E)-2-[1-(2,4-difluoro-phenyl)-8-(3-fluoro-benzyl)-1,4,5,6,7,8-hexahydro-cycloheptapyrazol-3-yl]-ethenesulfonic acid [(1S)-1-cyclohexyl-ethyl]-amide] | – | – | – | – | 1% | 38% | pEC50 (CB1 receptor [1]; [7]): 6.70
COc1ccc(/C=C2\CCCCc3c(C(=O)N[C@@H](C)c4ccccc4)nn(-c4ccc(Cl)cc4Cl)c32)cc1 [Cpd 213, (8E)-1-(2,4-dichloro-phenyl)-8-(4-methoxy-benzylidene)-1,4,5,6,7,8-hexahydro-cycloheptapyrazole-3-carboxylic acid [(1S)-1-phenyl-ethyl]-amide] | 8.00 | 19% | 71% | 7.22 | – | – | –
C[C@H](NC(=O)c1nn(Cc2ccccc2)c2c1CCCCC2c1ccccc1)c1ccccc1 (stereo partly drawn) [Cpd 48, 1-benzyl-8-phenyl-1,4,5,6,7,8-hexahydro-cycloheptapyrazole-3-carboxylic acid [(1S)-1-phenyl-ethyl]-amide] | – | – | – | – | 42% | 63% | pEC50 (CB1 receptor [1]; [7]): 6.52; pIC50 (CB1 receptor [2]; calculated by linear regression from percent inhibition at various test concentrations, read-out: Cannabinoid CB1 Receptor Binding IC50): 6.52
Cn1nc(/C=C/S(=O)(=O)NN2CCCCC2)c2c1C(Cc1ccc(F)cc1)CCCC2 (stereo not drawn) [Cpd 128, (2E)-2-[8-(4-fluoro-benzyl)-1-methyl-1,4,5,6,7,8-hexahydro-cycloheptapyrazol-3-yl]-ethenesulfonic acid piperidin-1-ylamide] | – | – | – | – | 0% | 0% | pEC50 (CB1 receptor [1]; [7]): 5.57
C[C@@H](NC(=O)c1nn(-c2ccc(Cl)cc2Cl)c2c1CCCC/C2=C\c1ccc(F)cc1)C1CCCCC1 [Cpd 147, (8E)-1-(2,4-dichloro-phenyl)-8-(4-fluoro-benzylidene)-1,4,5,6,7,8-hexahydro-cycloheptapyrazole-3-carboxylic acid [(1R)-1-cyclohexyl-ethyl]-amide] | 7.52 | 23% | 94% | 8.15 | – | – | –
COc1ccc(/C=C2\CCCCc3c(C(=O)NCc4ccccn4)nn(-c4ccc(Cl)cc4Cl)c32)cc1 [Cpd 210, (8E)-1-(2,4-dichloro-phenyl)-8-(4-methoxy-benzylidene)-1,4,5,6,7,8-hexahydro-cycloheptapyrazole-3-carboxylic acid (pyridin-2-ylmethyl)-amide] | 7.70 | 49% | 76% | 7.40 | – | – | –
O=C(NCCc1ccccn1)c1nn(-c2ccc(Cl)cc2Cl)c2c1CCCC/C2=C\c1ccc(Cl)cc1 [Cpd 157, (8E)-8-(4-chloro-benzylidene)-1-(2,4-dichloro-phenyl)-1,4,5,6,7,8-hexahydro-cycloheptapyrazole-3-carboxylic acid (2-pyridin-2-yl-ethyl)-amide] | 7.40 | 5% | 68% | 7.00 | – | – | –
O=C(N[C@H](CCl)c1ccccc1)c1nn(-c2ccc(F)cc2F)c2c1CCCCC2Cc1ccc(F)cc1 (stereo partly drawn) [Cpd 172, 1-(2,4-difluoro-phenyl)-8-(4-fluoro-benzyl)-1,4,5,6,7,8-hexahydro-cycloheptapyrazole-3-carboxylic acid [(1S)-2-chloro-1-phenyl-ethyl]-amide] | 7.00 | 41% | 64% | – | – | – | –
C[C@H](NS(=O)(=O)/C=C/c1nn(-c2ccc(Cl)cc2Cl)c2c1CCCCC2Cc1cccc(Cl)c1)c1ccccc1 (stereo partly drawn) [Cpd 3, (2E)-2-[8-(3-chloro-benzyl)-1-(2,4-dichloro-phenyl)-1,4,5,6,7,8-hexahydro-cycloheptapyrazol-3-yl]-ethenesulfonic acid [(1S)-1-phenyl-ethyl]-amide] | 7.15 | – | – | 5.89 | 26% | 60% | –
O=C(NN1CCCCC1)c1nn(-c2ccc(Cl)cc2Cl)c2c1CCCCC2Cc1cccc(Cl)c1 (stereo not drawn) [Cpd 28, 8-(3-chloro-benzyl)-1-(2,4-dichloro-phenyl)-1,4,5,6,7,8-hexahydro-cycloheptapyrazole-3-carboxylic acid piperidin-1-ylamide] | 7.30 | – | – | 7.00 | 11% | 65% | –
O=C(N[C@@H]1CCc2ccccc21)c1nn(-c2ccc(Cl)cc2Cl)c2c1CCCC/C2=C\c1ccc(F)cc1 [Cpd 207, (8E)-1-(2,4-dichloro-phenyl)-8-(4-fluoro-benzylidene)-1,4,5,6,7,8-hexahydro-cycloheptapyrazole-3-carboxylic acid (1R)-indan-1-ylamide] | 8.15 | 1% | 90% | 7.70 | – | – | –
